Reference: US12637461B2, “Compounds for the activation of AMPK” (PFIZER INC., priority 2022, dated 2026)

Molecular target: T1, human AMPK α2β2γ3 (Homo sapiens, UniProt O43741+P54646+Q9UGI9)
T1 construct: expressed in transfected cells; host or cells: HEK293AD cells, MaxCyte bulk electroporation
Test: Primary cellular assay: γ3 associated phospho-Thr172 AMPK detection (custom pAMPK Surefire AlphaLISA) in α2β2γ3 bulk transiently transfected HEK293 cells
Format: cell-based
Details: activation of human AMPK α2β2γ3 (γ3 pThr172 AMPK signal) in transiently transfected HEK293 cells, 20 minutes compound incubation; for Emax: 20 min, read-out: Assay GMean Asy. Max (%); for EC50: geometric mean EC50, read-out: Assay GMean EC50
Procedure: Primary Cellular Assay—γ3 Associated Phospho-Thr172 AMPK Detection in α2β2γ3 Bulk Transiently Transfected HEK293 Cells
The cellular potencies of the compounds were evaluated using a custom pAMPK Surefire AlphaLISA designed to assess γ3 associated phospho-Thr172 AMPK and modulation by small molecules in AMPK α2β2γ3 transiently transfected HEK293 cells.
A pAMPK Surefire AlphaLISA (PE-ASLU-PAMPK) assay available through Perkin Elmer was modified to selectively assess γ3 pThr172 AMPK content (as opposed to total pThr172 AMPK) by labeling a γ3 antibody with a CaptSure™ tag and substituting it for the total α1c/α2 AMPK labeled antibodies in the kit. In the modified assay, the overall abundance of γ3 AMPK is recognized by the CaptSure γ3 antibody and the phosphorylated AMPK is recognized by biotinylated pThr172 antibody. Subsequent reactivity with streptavitin donor beads and anti CaptSure conjugated acceptor beads brings the molecules into close proximity. Upon excitation at 680 nm, the donor bead converts ambient oxygen to a more excited singlet state which reacts with the acceptor bead and emits light at 520 to 620 nm. The intensity of the signal is proportional to the level of γ3 associated pThr172 AMPK phosphorylation.
In short, AMPK-α2+β2+γ3 MaxCyte bulk-transfected HEK293AD cells were thawed in growth media (DMEM High glucose+10% FBS) in a collagen-coated T150 flask and the cells were allowed to adhere and grow overnight in a 37° C. incubator. The following day, the cells were harvested and resuspended in plating medium (DMEM Low glucose+10% FBS) at a concentration of 100,000 cells per mL and 50 μL of this cell suspension was added to all wells of a 384-well plate using a Multidrop Combi. The cells were allowed to adhere and grow for 2 days in a 37° C. incubator. On assay day, compounds were diluted in 100% dimethyl sulfoxide (DMSO) in a 11 dose, half log dilution scheme and spotted in the cell plates at 1000× the final concentration. Compound incubations were performed in plating media for 20 minutes. Cells were washed with PBS, lysed and the signal was generated by subsequent additions of RB1 reagent from the kit, 1:1000 CaptSure γ3 labeled antibody in 1× immunoassay buffer, Anti-CaptSure acceptor beads and Streptavitin donor beads at final concentration of […]. The γ3 pThr172 AMPK signal was developed using EnVision™ multilabel reader (Perkin Elmer) using Alphascreen settings. The fluorescence emission was used to calculate the % effect relative to the HPE (30 μM) and ZPE (DMSO). EC50 curves were generated with the ActivityBase software using the XLfit model 205 to determine EC50 and Emax values.
For screening purposes, bulk AMPK-α2+β2+γ3 MaxCyte bulk transfection into HEK293AD cells were generated to support SAR screening as follows.
HEK293AD cells were seeded into 10 flasks at 2.7×10^7 cells per flask. The following day 12 mL of Trypl E dissociation reagent were added to each flask to lift the cells and the cells were then spun at 300×g for 5 minutes. Cells were washed once in MaxCyte EP buffer and then resuspended in MaxCyte EP buffer at 1×10^8 cells per mL. For transfection, 500×10^6 cells in 500 μl MaxCyte EP buffer were placed in a CL1.1 Processing Assembly (electroporation cell) with 1 mg/mL ([…]) of each of the plasmids pcDNA3.1(+)-human AMPK alpha 2, pcDNA3.1(+)-human AMPK beta 2 and pcDNA3.1(+)-human AMPK gamma 3 and the electroporation was carried out on the MaxCyte STX using the HEK293 electroporation protocol. Following electroporation, cells were transferred to a T175 flask containing growth medium (DMEM High glucose+10% FBS) and allowed to recover for 25 minutes, then the cells were resuspended to final volume of 900 mL and distributed into 6XT175 flasks and allowed to adhere and grow overnight in a 37° C. incubator. […]

[1] = geometric mean of the asymptotic max

T1 sequence (P54646 whole entry): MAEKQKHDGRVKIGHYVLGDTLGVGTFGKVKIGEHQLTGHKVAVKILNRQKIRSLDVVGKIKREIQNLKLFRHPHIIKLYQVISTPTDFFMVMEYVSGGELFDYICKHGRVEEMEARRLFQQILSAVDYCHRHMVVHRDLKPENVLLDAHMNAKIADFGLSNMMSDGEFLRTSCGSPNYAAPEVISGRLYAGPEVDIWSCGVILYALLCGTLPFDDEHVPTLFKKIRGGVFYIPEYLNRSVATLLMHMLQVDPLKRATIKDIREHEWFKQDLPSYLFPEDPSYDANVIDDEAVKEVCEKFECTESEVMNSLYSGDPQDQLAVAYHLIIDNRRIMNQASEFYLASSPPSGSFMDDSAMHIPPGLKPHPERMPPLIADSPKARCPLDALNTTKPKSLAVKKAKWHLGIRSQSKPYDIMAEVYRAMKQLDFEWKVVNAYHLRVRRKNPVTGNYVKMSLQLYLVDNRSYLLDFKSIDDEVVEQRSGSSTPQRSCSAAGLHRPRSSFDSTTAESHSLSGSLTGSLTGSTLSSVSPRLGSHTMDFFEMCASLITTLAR
T1 sequence (O43741 whole entry): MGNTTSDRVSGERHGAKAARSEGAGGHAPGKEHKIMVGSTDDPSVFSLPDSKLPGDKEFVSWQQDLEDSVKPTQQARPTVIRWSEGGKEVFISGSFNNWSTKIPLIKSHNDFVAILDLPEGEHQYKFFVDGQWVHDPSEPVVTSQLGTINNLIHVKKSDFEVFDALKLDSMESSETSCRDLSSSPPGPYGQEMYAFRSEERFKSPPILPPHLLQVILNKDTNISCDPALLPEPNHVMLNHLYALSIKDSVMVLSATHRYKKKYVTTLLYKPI
T1 sequence (Q9UGI9 whole entry): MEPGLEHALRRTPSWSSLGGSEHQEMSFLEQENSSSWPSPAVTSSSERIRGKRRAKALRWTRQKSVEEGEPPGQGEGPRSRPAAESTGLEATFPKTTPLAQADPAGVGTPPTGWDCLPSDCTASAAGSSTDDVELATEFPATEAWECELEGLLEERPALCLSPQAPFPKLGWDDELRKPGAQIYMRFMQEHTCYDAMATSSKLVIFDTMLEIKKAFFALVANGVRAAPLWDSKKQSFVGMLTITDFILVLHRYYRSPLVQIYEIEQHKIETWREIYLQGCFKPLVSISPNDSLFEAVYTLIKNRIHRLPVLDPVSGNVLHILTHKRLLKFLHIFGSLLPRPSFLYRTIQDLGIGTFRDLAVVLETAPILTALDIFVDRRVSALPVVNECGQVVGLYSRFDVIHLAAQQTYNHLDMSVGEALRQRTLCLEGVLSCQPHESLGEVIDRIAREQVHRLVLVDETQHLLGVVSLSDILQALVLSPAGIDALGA

SMILES | Emax [1] [%] | EC50 [nM] | Assay GMean Asy. Max (%) [1] [%]
Cc1c(F)ccc(C2(C)CN(c3ccc(CO)cn3)C(=O)c3cnc(NC4CN(C(=O)N5C[C@@H]6C[C@H]5CO6)C4)c(F)c32)c1F (single isomer, unassigned) [compound 107] | 119 | 32.7 | 
CN1CCC(F)(C(=O)N2CC[C@@H](Nc3ncc4c(c3F)C(C)(c3cccc(Cl)c3F)CN(c3ncccc3F)C4=O)C2)CC1 (single isomer, unassigned) [compound 109] | 81.7 | 76.2 | 
CC1(c2cccc(Cl)c2F)CN(c2ncccc2F)C(=O)c2cnc(NC3CN(C(=O)[C@](C)(O)C(F)(F)F)C3)nc21 (single isomer, unassigned) [compound 111] | 159 | 342 | 
C[C@]1(c2cccc(Cl)c2F)CN(c2ncccc2F)C(=O)c2cnc(NC3CN(C(=O)C4(O)CC4)C3)c(F)c21 [Example 1, (4R)-4-(3-Chloro-2-fluorophenyl)-5-fluoro-2-(3-fluoropyridin-2-yl)-6-{[1-(1-hydroxycyclopropane-1-carbonyl)azetidin-3-yl]amino}-4-methyl-3,4-dihydro-2,7-naphthyridin-1(2H)-one] | 112 | 33.6 | 
Cn1cc(F)c(N2C[C@](C)(c3cccc(Cl)c3F)c3c(cnc(NC4CN(C(=O)[C@@H]5C[C@@H]5F)C4)c3F)C2=O)n1 [Example 2, (4R)-4-(3-chloro-2-fluorophenyl)-5-fluoro-6-({1-[(1S,2S)-2-fluorocyclopropane-1-carbonyl]azetidin-3-yl}amino)-2-(4-fluoro-1-methyl-1H-pyrazol-3-yl)-4-methyl-3,4-dihydro-2,7-naphthyridin-1(2H)-one] | 81.7 | 29.9 | 
Cn1cnc(N2C[C@](C)(c3cccc(Cl)c3F)c3c(cnc(NC4CN(C(=O)C(C)(C)O)C4)c3F)C2=O)c1 [Example 3, (4R)-4-(3-Chloro-2-fluorophenyl)-5-fluoro-6-{[1-(2-hydroxy-2-methylpropanoyl)azetidin-3-yl]amino}-4-methyl-2-(1-methyl-1H-imidazol-4-yl)-3,4-dihydro-2,7-naphthyridin-1(2H)-one] | 56 | 112 | 
C[C@]1(c2cccc(Cl)c2F)CN(c2ccc(CO)cn2)C(=O)c2cnc(NC3CN(C(=O)c4cccnn4)C3)c(F)c21 [Example 4, (4R)-4-(3-Chloro-2-fluorophenyl)-5-fluoro-2-[5-(hydroxymethyl)pyridin-2-yl]-4-methyl-6-{[1-(pyridazine-3-carbonyl)azetidin-3-yl]amino}-3,4-dihydro-2,7-naphthyridin-1(2H)-one] | 96.3 | 66.3 | 
C[C@]1(c2cccc(Cl)c2F)CN(c2ccccn2)C(=O)c2cnc(NC3CN(C(=O)[C@@H]4C[C@@H]4F)C3)c(F)c21 [Example 5, (4R)-4-(3-chloro-2-fluorophenyl)-5-fluoro-6-({1-[(1S,2S)-2-fluorocyclopropane-1-carbonyl]azetidin-3-yl}amino)-4-methyl-2-(pyridin-2-yl)-3,4-dihydro-2,7-naphthyridin-1(2H)-one] | 64.9 | 27.7 | 
C[C@]1(c2cccc(Cl)c2F)CN(c2ncccc2F)C(=O)c2cnc(NC3CN(C(=O)[C@@H]4C[C@@H]4F)C3)c(F)c21 [Example 6, (4R)-4-(3-chloro-2-fluorophenyl)-5-fluoro-6-({1-[(1S,2S)-2-fluorocyclopropane-1-carbonyl]azetidin-3-yl}amino)-2-(3-fluoropyridin-2-yl)-4-methyl-3,4-dihydro-2,7-naphthyridin-1(2H)-one] | 58 | 22.2 | 
Cn1cc(F)c(N2C[C@](C)(c3cccc(Cl)c3F)c3c(cnc(NC4CN(C(=O)C5(O)CCC5)C4)c3F)C2=O)n1 [Example 7, (4R)-4-(3-Chloro-2-fluorophenyl)-5-fluoro-2-(4-fluoro-1-methyl-1H-pyrazol-3-yl)-6-{[1-(1-hydroxycyclobutane-1-carbonyl)azetidin-3-yl]amino}-4-methyl-3,4-dihydro-2,7-naphthyridin-1(2H)-one] | 123 | 144 | 
Cn1cc(F)c(N2C[C@](C)(c3cccc(Cl)c3F)c3c(cnc(NC4CN(C(=O)[C@H]5C[C@@H]5F)C4)c3F)C2=O)n1 [Example 8, (4R)-4-(3-Chloro-2-fluorophenyl)-5-fluoro-6-({1-[(1R,2S)-2-fluorocyclopropane-1-carbonyl]azetidin-3-yl}amino)-2-(4-fluoro-1-methyl-1H-pyrazol-3-yl)-4-methyl-3,4-dihydro-2,7-naphthyridin-1(2H)-one] | 58.2 | 63.8 | 
CN(C(=O)CN1CC(Nc2ncc3c(c2F)[C@@](C)(c2cccc(Cl)c2F)CN(c2nn(C)cc2F)C3=O)C1)C1CC1 [Example 11, 2-(3-{[(5R)-5-(3-Chloro-2-fluorophenyl)-4-fluoro-7-(4-fluoro-1-methyl-1H-pyrazol-3-yl)-5-methyl-8-oxo-5,6,7,8-tetrahydro-2,7-naphthyridin-3-yl]amino}azetidin-1-yl)-N-cyclopropyl-N-methylacetamide] | 160 | 22.7 | 
Cn1cc(F)c(N2C[C@](C)(c3cccc(Cl)c3F)c3c(cnc(NC4CN(C(=O)CN5CCCC5)C4)c3F)C2=O)n1 [Example 12, (4R)-4-(3-Chloro-2-fluorophenyl)-5-fluoro-2-(4-fluoro-1-methyl-1H-pyrazol-3-yl)-4-methyl-6-({1-[(pyrrolidin-1-γ1)acetyl]azetidin-3-yl}amino)-3,4-dihydro-2,7-naphthyridin-1(2H)-one] | 77.9 | 43.5 | 
CC(C)NCC(=O)N1CC(Nc2ncc3c(c2F)[C@@](C)(c2cccc(Cl)c2F)CN(c2nn(C)cc2F)C3=O)C1 [Example 13, (4R)-4-(3-Chloro-2-fluorophenyl)-5-fluoro-2-(4-fluoro-1-methyl-1H-pyrazol-3-yl)-4-methyl-6-[(1-{[(propan-2-γ1)amino]acetyl}azetidin-3-γ1)amino]-3,4-dihydro-2,7-naphthyridin-1(2H)-one] |  | 108 | 46.2
C[C@]1(c2cccc(Cl)c2F)CN(c2cc(F)c(CN)cc2F)C(=O)c2cnc(NC3CN(C(=O)[C@@H]4C[C@@H]4F)C3)c(F)c21 [Example 14, (4R)-2-[4-(aminomethyl)-2,5-difluorophenyl]-4-(3-chloro-2-fluorophenyl)-5-fluoro-6-({1-[(1S,2S)-2-fluorocyclopropane-1-carbonyl]azetidin-3-yl}amino)-4-methyl-3,4-dihydro-2,7-naphthyridin-1(2H)-one] | 69.4 | 33.7 | 
C[C@]1(c2cccc(Cl)c2F)CN(c2ccc(N)cn2)C(=O)c2cnc(NC3CN(C(=O)[C@@H]4C[C@@H]4F)C3)c(F)c21 [Example 15, (4R)-2-(5-aminopyridin-2-yl)-4-(3-chloro-2-fluorophenyl)-5-fluoro-6-({1-[(1S,2S)-2-fluorocyclopropane-1-carbonyl]azetidin-3-yl}amino)-4-methyl-3,4-dihydro-2,7-naphthyridin-1(2H)-one] | 61.5 | 31.5 | 
